# From US20190175560A1, “MEBENDAZOLE CANCER THERAPIES AND METHODS OF USE” (Shepherd Therapeutics, Inc., priority 2017, published 2019)
# Key:
# Type in all cases: cell-based
# [1] = tested on: H295R adrenocortical carcinoma cells; assay: Synergy of MBZ with chemotherapeutic agents (Chou-Talalay CI, Cell Titer Glo); conditions: in combination with MBZ, 72 hour incubation
# Experimental: (§1) For in vitro experiments, cells were plated in triplicate and treated with a range of concentrations of MBZ and relevant chemotherapeutic agents in a complete Latin square. Combination indexes (CI) were determined based on the method described by Chou and Talalay (Cancer Res. 2010 Jan. 15; 70(2):440-6. doi: 10.1158/0008-5472.CAN-09-1947. Epub 2010 Jan. 12).
# (§2) Cells were plated in triplicate and treated with a range of 5 concentrations of MBZ in combination with 5 concentrations of chemotherapeutic agents in a complete Latin square. Following a 72 hour incubation, cell viability was determined using Cell Titer Glo. The Combination index (CI) was determined based on the method described by Chou and Talalay (2010) with a CI value less than 0.9 indicating synergy.
# [2] = tested on: SW13 adrenocortical carcinoma cells; assay: as above; conditions: in combination with MBZ, 72 hour incubation
# Experimental: as §2
# [3] = tested on: STC-1 carcinoid tumor cell line; assay: as above; conditions: in combination with MBZ, 72 hour incubation
# Experimental: (§3) For in vitro experiments, cells were plated in triplicate and treated with a range of concentrations of MBZ and relevant chemotherapeutic agents in a complete Latin square.
# as §2
# [4] = tested on: SK-LMS-1 leiomyosarcoma cells; assay: as above; conditions: in combination with MBZ, 72 hour incubation
# Experimental: as §2
# [5] = tested on: SK-UT-1 leiomyosarcoma cells; assay: as above; conditions: in combination with MBZ, 72 hour incubation
# Experimental: as §2
# [6] = tested on: SK-UT-1B leiomyosarcoma cells; assay: as above; conditions: in combination with MBZ, 72 hour incubation
# Experimental: as §1, §2
# JU77 mesothelioma cells = assay: as above; conditions: in combination with MBZ, 72 hour incubation
# Experimental: as §3, §2
# LO68 mesothelioma cells = assay: as above; conditions: in combination with MBZ, 72 hour incubation
# Experimental: as §3, §2
# [7] = tested on: MSTO-211H mesothelioma cells; assay: as above; conditions: in combination with MBZ, 72 hour incubation
# Experimental: as §3, §2
# [8] = tested on: CHP-212 neuroblastoma cells; assay: Synergy of MBZ or HA-PLGA-MBZ with chemotherapeutic agents (Chou-Talalay CI, Cell Titer Glo); conditions: in combination with MBZ; CHP-212; 72 hour incubation
# Experimental: as §3
# (§4) Cells were plated in triplicate and treated with a range of 5 concentrations of MBZ in combination with 5 concentrations of chemotherapeutic agents in a complete Latin square. Following a 72 hour incubation, cell viability was determined using Cell Titer Glo.
# (§5) In table 22 below, cells were plated in triplicate and treated with a range of 5 concentrations of MBZ or HA-PLGA-MBZ nanoparticles containing a molar equivalent of MBZ, and 5 concentrations of relevant chemotherapeutic agents in a complete Latin square. Combination indexes (CI) were determined based on the method described by Chou-Talalay with a CI value less than 0.9 indicating synergy. […] Numbers in parentheses represent the range of synergistic CI values for each cell line and drug combination.
# [9] = tested on: SK-N-AS neuroblastoma cells; assay: Synergy of MBZ with chemotherapeutic agents (Chou-Talalay CI, Cell Titer Glo); conditions: in combination with MBZ, 72 hour incubation
# Experimental: as §2
# [10] = tested on: Flo-1 esophageal carcinoma cells; assay: as above; conditions: in combination with MBZ, 72 hour incubation
# Experimental: as §3, §4
# [11] = tested on: OE-33 esophageal carcinoma cells; assay: as above; conditions: in combination with MBZ, 72 hour incubation
# Experimental: as §3, §4
# [12] = tested on: Kato-III gastric carcinoma cells; assay: as above; conditions: in combination with MBZ, 72 hour incubation
# Experimental: as §3, §4
# [13] = tested on: SNU16 gastric carcinoma cells; assay: Synergy of MBZ or HA-PLGA-MBZ with chemotherapeutic agents (Chou-Talalay CI, Cell Titer Glo); conditions: in combination with MBZ; SNU16; 72 hour incubation
# Experimental: as §3, §4, §5
# [14] = tested on: COV362 ovarian carcinoma cells; assay: Synergy of MBZ with chemotherapeutic agents (Chou-Talalay CI, Cell Titer Glo); conditions: in combination with MBZ, 72 hour incubation
# Experimental: as §3, §4
# [15] = tested on: TOV-112D ovarian carcinoma cells; assay: as above; conditions: in combination with MBZ, 72 hour incubation
# Experimental: as §3, §2
# [16] = tested on: HCT116 colorectal carcinoma cells; assay: as above; conditions: in combination with MBZ, 72 hour incubation
# Experimental: as §3, §4
# [17] = tested on: Colo-205 colorectal carcinoma cells; assay: as above; conditions: in combination with MBZ, 72 hour incubation
# Experimental: as §3, §4
# [18] = tested on: BxPC-3 pancreatic carcinoma cells; assay: as above; conditions: in combination with MBZ, 72 hour incubation
# Experimental: as §3, §4
# [19] = tested on: Hs766t pancreatic carcinoma cells; assay: as above; conditions: in combination with MBZ, 72 hour incubation
# Experimental: as §2
# [20] = tested on: PC12 pheochromocytoma/paraganglioma cell line; assay: Synergy of MBZ or HA-PLGA-MBZ with chemotherapeutic agents (Chou-Talalay CI, Cell Titer Glo); conditions: in combination with MBZ; PC12; 72 hour incubation
# Experimental: as §3, §4, §5
# [21] = tested on: GIST-1 gastrointestinal stromal tumor cell line; assay: Synergy of MBZ with small molecule agents (Chou-Talalay CI, Cell Titer Glo); conditions: in combination with MBZ, 72 hour incubation
# Experimental: as §1, §2
# [22] = tested on: CCC-5 cholangiocarcinoma cells; assay: Synergy of MBZ with chemotherapeutic agents (Chou-Talalay CI, Cell Titer Glo); conditions: in combination with MBZ, 72 hour incubation
# Experimental: as §3, §4
# [23] = tested on: HepG2 hepatocellular carcinoma cells; assay: as above; conditions: in combination with MBZ, 72 hour incubation
# Experimental: as §3, §4
# [24] = tested on: TFK-1 cholangiocarcinoma cells; assay: as above; conditions: in combination with MBZ, 72 hour incubation
# Experimental: as §1, §2
# [25] = tested on: DMS-114 small cell lung carcinoma cells; assay: as above; conditions: in combination with MBZ, 72 hour incubation
# Experimental: as §1, §2
# [26] = tested on: SW-1271 small cell lung carcinoma cells; assay: as above; conditions: in combination with MBZ, 72 hour incubation
# Experimental: as §3, §2
# [27] = tested on: HepG2-C3A hepatocellular carcinoma cells; assay: as above; conditions: in combination with MBZ, 72 hour incubation
# Experimental: as §3, §2
structure (smiles),measurement,setting,value
COc1cccc2c1C(=O)c1c(O)c3c(c(O)c1C2=O)C[C@@](O)(C(=O)CO)C[C@@H]3O[C@H]1C[C@H](N)[C@H](O)[C@H](C)O1 [Doxorubicin],synergy with MBZ (Yes/No),[1],No
same,CI range for the concentration pairings,[2],0.771-0.850
same,CI range for the concentration pairings,[3],0.419-0.829
same,CI range for the concentration pairings,[4],0.514-0.872
same,synergy with MBZ (Yes/No),[5],No
same,CI range for the concentration pairings,[6],0.716-0.887
same,CI range for the concentration pairings,JU77 mesothelioma cells,0.458-0.820
same,CI range for the concentration pairings,LO68 mesothelioma cells,0.433-0.875
same,CI range for the concentration pairings,[7],0.288-0.700
same,CI range for the concentration pairings,[8],0.646-0.883
same,CI range for the concentration pairings,[9],0.267-0.849
N.N.O=C([O-])C1(C(=O)[O-])CCC1.[Pt+2] [Carboplatin],CI range for the concentration pairings,[10],0.063-0.603
same,CI range for the concentration pairings,[11],0.542-0.636
same,synergy with MBZ (Yes/No),[12],No
same,CI range for the concentration pairings,[13],0.409-0.783
same,CI range for the concentration pairings,JU77 mesothelioma cells,0.539-0.841
same,CI range for the concentration pairings,LO68 mesothelioma cells,0.574-0.865
same,synergy with MBZ (Yes/No),[7],No
same,CI range for the concentration pairings,[8],0.587-0.876
same,CI range for the concentration pairings,[9],0.433-0.891
same,CI range for the concentration pairings,[14],0.553-0.860
same,CI range for the concentration pairings,[15],0.506-0.845
CCc1c2c(nc3ccc(OC(=O)N4CCC(N5CCCCC5)CC4)cc13)-c1cc3c(c(=O)n1C2)COC(=O)[C@]3(O)CC [Irinotecan],CI range for the concentration pairings,[16],0.545-0.793
same,CI range for the concentration pairings,[17],0.502-0.819
same,CI range for the concentration pairings,[10],0.439-0.871
same,CI range for the concentration pairings,[11],0.589-0.757
same,synergy with MBZ (Yes/No),[12],No
same,CI range for the concentration pairings,[13],0.635-0.871
same,CI range for the concentration pairings,[18],0.659-0.793
same,synergy with MBZ (Yes/No),[19],No
CN(C)/N=N/c1[nH]cnc1C(N)=O [Dacarbazine],CI range for the concentration pairings,[20],0.246-0.785
CCC1=C[C@@H]2CN(C1)Cc1c([nH]c3ccccc13)[C@@](C(=O)OC)(c1cc3c(cc1OC)N(C)[C@H]1[C@@](O)(C(=O)OC)[C@H](OC(C)=O)[C@]4(CC)C=CCN5CC[C@]31[C@@H]54)C2 [Vinorelbine],CI range for the concentration pairings,JU77 mesothelioma cells,0.325-0.799
same,CI range for the concentration pairings,LO68 mesothelioma cells,0.445-0.872
same,CI range for the concentration pairings,[7],0.087-0.885
Cc1ccc(NC(=O)c2ccc(CN3CCN(C)CC3)cc2)cc1Nc1nccc(-c2cccnc2)n1 [Imatinib],CI range for the concentration pairings,[21],0.627-0.875
CCN1CCN(Cc2ccc(Nc3ncc(F)c(-c4cc(F)c5nc(C)n(C(C)C)c5c4)n3)nc2)CC1 [Abemaciclib],CI range for the concentration pairings,[21],0.390-0.701
CC(=O)O[C@H]1C(=O)[C@@]2(C)[C@H]([C@H](OC(=O)c3ccccc3)[C@]3(O)C[C@H](OC(=O)[C@H](O)[C@@H](NC(=O)c4ccccc4)c4ccccc4)C(C)=C1C3(C)C)[C@]1(OC(C)=O)CO[C@@H]1C[C@@H]2O [Paclitaxel],CI range for the concentration pairings,[10],0.430-0.864
same,CI range for the concentration pairings,[12],0.193-0.508
same,CI range for the concentration pairings,[13],0.425-0.883
same,CI range for the concentration pairings,[14],0.318-0.889
same,CI range for the concentration pairings,[15],0.367-0.839
same,CI range for the concentration pairings,[18],0.341-0.845
O=P1(NCCCl)OCCCN1CCCl (stereo not drawn) [Ifosamide],CI range for the concentration pairings,[5],0.317-0.708
CC[C@]1(O)C[C@H]2CN(CCc3c([nH]c4ccccc34)[C@@](C(=O)OC)(c3cc4c(cc3OC)N(C=O)[C@H]3[C@@](O)(C(=O)OC)[C@H](OC(C)=O)[C@]5(CC)C=CCN6CC[C@]43[C@@H]65)C2)C1 [Vincristine],CI range for the concentration pairings,[20],0.274-0.871
"O=c1[nH]cc(F)c(=O)[nH]1 [5-FU, 5-Fluorouracil]",CI range for the concentration pairings,[3],0.458-0.850
same,CI range for the concentration pairings,[22],0.252-0.878
same,CI range for the concentration pairings,[16],0.285-0.860
same,CI range for the concentration pairings,[17],0.528-0.748
same,CI range for the concentration pairings,[10],0.370-0.855
same,CI range for the concentration pairings,[12],0.073-0.558
same,CI range for the concentration pairings,[13],0.429-0.827
same,CI range for the concentration pairings,[18],0.448-0.792
same,CI range for the concentration pairings,[19],0.170-0.877
O=C1[O][Pt]2([NH][C@@H]3CCCC[C@H]3[NH]2)[O]C1=O [Oxaliplatin],CI range for the concentration pairings,[22],0.060-0.631
same,CI range for the concentration pairings,[16],0.493-0.728
same,CI range for the concentration pairings,[10],0.355-0.875
same,CI range for the concentration pairings,[11],0.395-0.597
same,CI range for the concentration pairings,[12],0.587-0.897
same,CI range for the concentration pairings,[13],0.571-0.883
same,CI range for the concentration pairings,[23],0.036-0.834
same,CI range for the concentration pairings,[18],0.455-0.758
N.N.[Cl][Pt][Cl] [Cisplatin],CI range for the concentration pairings,[1],0.544-0.771
same,CI range for the concentration pairings,[2],0.410-0.883
same,CI range for the concentration pairings,[3],0.441-0.785
same,CI range for the concentration pairings,[22],0.121-0.716
same,CI range for the concentration pairings,[24],0.405-0.877
same,CI range for the concentration pairings,[8],0.653-0.896
same,CI range for the concentration pairings,[9],0.141-0.746
same,CI range for the concentration pairings,[14],0.578-0.878
same,CI range for the concentration pairings,[15],0.497-0.860
same,CI range for the concentration pairings,[18],0.469-0.762
same,CI range for the concentration pairings,[19],0.658-0.847
same,CI range for the concentration pairings,[25],0.223-0.837
same,CI range for the concentration pairings,[26],0.275-0.763
CC(=O)O[C@@]12CO[C@@H]1C[C@H](O)[C@@]1(C)C(=O)[C@H](O)C3=C(C)[C@@H](OC(=O)[C@H](O)[C@@H](NC(=O)OC(C)(C)C)c4ccccc4)C[C@@](O)([C@@H](OC(=O)c4ccccc4)[C@H]21)C3(C)C [Docetaxel],synergy with MBZ (Yes/No),[4],No
same,CI range for the concentration pairings,[14],0.399-0.867
same,synergy with MBZ (Yes/No),[15],No
COc1cc([C@@H]2c3cc4c(cc3[C@@H](O[C@@H]3O[C@@H]5CO[C@@H](C)O[C@H]5[C@H](O)[C@H]3O)[C@H]3COC(=O)[C@H]23)OCO4)cc(OC)c1O [Etoposide],CI range for the concentration pairings,[2],0.618-0.710
same,CI range for the concentration pairings,[3],0.253-0.893
same,CI range for the concentration pairings,[16],0.607-0.890
same,CI range for the concentration pairings,[17],0.293-0.707
same,CI range for the concentration pairings,[8],0.647-0.891
same,CI range for the concentration pairings,[25],0.551-0.832
same,CI range for the concentration pairings,[26],0.535-0.899
O=P1(N(CCCl)CCCl)NCCCO1 (stereo not drawn) [Cyclophosphamide],CI range for the concentration pairings,[3],0.226-0.784
same,CI range for the concentration pairings,[8],0.569-0.860
same,CI range for the concentration pairings,[20],0.388-0.879
Nc1ccn([C@@H]2O[C@H](CO)[C@@H](O)C2(F)F)c(=O)n1 [Gemcitabine],CI range for the concentration pairings,[22],0.394-0.855
same,synergy with MBZ (Yes/No),[24],No
same,CI range for the concentration pairings,[4],0.418-0.861
same,CI range for the concentration pairings,[5],0.385-0.802
same,CI range for the concentration pairings,[6],0.410-0.893
same,CI range for the concentration pairings,[23],0.012-0.796
same,synergy with MBZ (Yes/No),[27],No
same,CI range for the concentration pairings,JU77 mesothelioma cells,0.362-0.712
same,CI range for the concentration pairings,LO68 mesothelioma cells,0.525-0.845
same,CI range for the concentration pairings,[7],0.086-0.796
same,CI range for the concentration pairings,[18],0.502-0.770
same,CI range for the concentration pairings,[19],0.149-0.874
